Several values for one entry are separate records, joined by “and”; a condition that tells them apart may be missing. Identical values can stand only once. Like-named read-outs stand apart in the source and are kept apart here.
Columns and labels:
[1] = target: T1, OATP1A2 (Homo sapiens, UniProt P46721); assay: OATP1A2-mediated sulforhodamine 101 uptake in A431 cells overexpressing OATP1A2; type: cell-based; conditions: for IC50: A431-OATP1A2 cells
T1 construct: host or cells: A431
T1 sequence (P46721 1-670): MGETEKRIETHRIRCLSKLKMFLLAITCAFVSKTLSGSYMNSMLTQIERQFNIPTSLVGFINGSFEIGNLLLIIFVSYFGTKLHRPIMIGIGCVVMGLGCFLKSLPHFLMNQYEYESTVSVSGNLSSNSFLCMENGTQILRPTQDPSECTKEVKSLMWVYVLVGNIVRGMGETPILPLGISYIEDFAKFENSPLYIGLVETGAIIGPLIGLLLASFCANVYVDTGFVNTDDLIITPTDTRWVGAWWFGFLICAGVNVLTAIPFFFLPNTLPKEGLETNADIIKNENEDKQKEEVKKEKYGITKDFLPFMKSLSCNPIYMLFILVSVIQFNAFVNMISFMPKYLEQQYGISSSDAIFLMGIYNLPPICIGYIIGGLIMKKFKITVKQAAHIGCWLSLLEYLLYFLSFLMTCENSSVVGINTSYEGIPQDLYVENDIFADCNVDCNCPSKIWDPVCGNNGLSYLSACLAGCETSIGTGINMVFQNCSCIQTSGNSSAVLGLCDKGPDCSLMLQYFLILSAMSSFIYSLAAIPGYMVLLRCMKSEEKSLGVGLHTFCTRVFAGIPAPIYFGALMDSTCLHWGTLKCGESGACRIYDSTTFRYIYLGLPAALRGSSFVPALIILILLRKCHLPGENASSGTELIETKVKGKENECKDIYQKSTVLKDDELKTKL
Experimental: (§1) A431 cells overexpressing human OATPs, 1A2 (BC042452, HsCD00333163), 1B1 (Gene ID: AB026257), 1B3 (BC141525, HsCD00348132) or 2B1 (BC041095.1, HsCD00378878), or their mock transfected controls, were generated as previously described. Cells were cultured in Dulbecco’s Modified Eagle Medium (DMEM; Thermo Fischer Scientific, Waltham, MA, USA) supplemented with 10% fetal bovine serum, 2 mM L-glutamine, 100 units/mL penicillin and 100 µg/mL streptomycin, at 37 °C with 5% CO2.
(§2) The interaction between flavonoids and OATPs was investigated in an indirect assay employing the fluorescent dye substrates, pyranine and sulforhodamine 101 [51, 52]. Briefly, A431 cell overexpressing OATPs, 1A2, 1B1, 1B3 or 2B1, or their mock transfected controls, were seeded on 96-well plates in a density of 8x10^4 cells/well in 200 μL DMEM one day prior to the transport measurements. […] The reaction was started by the addition of 50 μL uptake buffer containing pyranine in a final concentration of 10 μM (OATP1B1) or 20 μM (OATP1B3 and OATP2B1), or 0.5 μM sulforhodamine 101 (OATP1A2). Thereafter, cells were incubated at 37°C for 15 min (OATP1B1 and OATP2B1), 10 min (OATP1A2), or 30 min (OATP1B3). The reactions were stopped by removing the supernatants, then the cells were washed three times with ice-cold PBS. Fluorescence (in 200 μL PBS/well) was determined employing an Enspire plate reader (Perkin Elmer, Waltham, MA) ex/em: 403/517 nm (pyranine) or 586/605 nm (sulforhodamine 101). OATP-dependent transport was calculated by extracting fluorescence measured in mock transfected cells. Transport activity was calculated based on the fluorescence signal in the absence (100%) of flavonoids. Experiments were repeated at least in three biological replicates. IC50 values were calculated by Hill1 fit, using the Origin Pro8.6 software ([…]).

[2] = target: T2, OATP1B1 (Homo sapiens, UniProt Q9Y6L6); assay: OATP1B1-mediated pyranine uptake in A431 cells overexpressing OATP1B1; type: cell-based
T2 construct: expressed in transfected cells; host or cells: A431
T2 sequence (Q9Y6L6 1-691): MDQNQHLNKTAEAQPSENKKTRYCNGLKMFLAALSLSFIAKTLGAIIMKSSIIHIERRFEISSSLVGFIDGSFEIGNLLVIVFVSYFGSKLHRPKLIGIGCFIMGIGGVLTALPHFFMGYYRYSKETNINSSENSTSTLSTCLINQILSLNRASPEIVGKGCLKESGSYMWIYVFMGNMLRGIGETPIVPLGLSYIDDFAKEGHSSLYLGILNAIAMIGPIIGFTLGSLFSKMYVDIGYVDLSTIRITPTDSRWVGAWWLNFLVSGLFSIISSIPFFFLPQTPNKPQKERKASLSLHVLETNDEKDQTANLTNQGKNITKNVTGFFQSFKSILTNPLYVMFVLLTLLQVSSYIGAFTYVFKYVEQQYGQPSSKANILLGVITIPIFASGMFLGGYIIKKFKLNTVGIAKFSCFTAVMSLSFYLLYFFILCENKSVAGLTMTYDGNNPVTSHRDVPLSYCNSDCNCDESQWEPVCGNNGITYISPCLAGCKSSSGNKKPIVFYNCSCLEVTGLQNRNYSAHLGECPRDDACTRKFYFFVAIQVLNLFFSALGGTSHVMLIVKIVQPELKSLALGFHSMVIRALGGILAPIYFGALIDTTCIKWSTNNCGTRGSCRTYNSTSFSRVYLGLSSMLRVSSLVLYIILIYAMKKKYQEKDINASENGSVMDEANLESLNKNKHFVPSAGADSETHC
Experimental: as §1, §2

[3] = 0.5 μM sulforhodamine 101, 10 min
[4] = 0.5 μM sulforhodamine 101, 10 min, read-out: IC50 for OATP1A2
[5] = 10 μM pyranine, 15 min, A431-OATP1B1 cells, read-out: IC50 for OATP1B1

SMILES	concentration causing statistically significant (p < 0.01) inhibition, OATP1A2 [1, 3]	IC50 [1, 4]	concentration causing statistically significant (p < 0.01) inhibition, OATP1B1 ([2]; 10 μM pyranine, 15 min)	IC50 [2, 5]	IC50 ([1]; IC50 for OATP1A2, 0.5 μM sulforhodamine 101, 10 min)	IC50 [2]
O=c1c(O)c(-c2ccc(O)c(O)c2)oc2cc(O)cc(O)c12 [Q, quercetin]	3.1 µM	10.1 µM	1300 nM	1.55 µM		
COc1cc(-c2oc3cc(O)cc(O)c3c(=O)c2O)ccc1O [IR, isorhamnetin]	3.1 µM		3100 nM		> 30 µM	3.12 µM
COc1cc(-c2oc3cc(O)cc(O)c3c(=O)c2OC2OC(C(=O)O)C(O)C(O)C2O)ccc1O (centres unmarked) [I3G, isorhamnetin-3-glucuronide]	12.5 µM	> 30 µM	1600 nM	5.63 µM		

Further lines, with some results ahead:

concentration causing statistically significant (p < 0.01) inhibition, OATP1A2 [1, 3]	IC50 [1, 4]	concentration causing statistically significant (p < 0.01) inhibition, OATP1B1 ([2]; 10 μM pyranine, 15 min)	IC50 [2, 5]	SMILES	IC50 ([1]; IC50 for OATP1A2, 0.5 μM sulforhodamine 101, 10 min)	IC50 [2]
0.8 µM	4.9 µM and 4.92 µM	300 nM	0.33 µM	O=c1c(O)c(-c2ccc(O)c(OS(=O)(=O)O)c2)oc2cc(O)cc(O)c12 [Q3′S, quercetin-3′-sulfate]		
25 µM	> 30 µM	1600 nM	4.05 µM	O=C(O)C1OC(Oc2c(-c3ccc(O)c(O)c3)oc3cc(O)cc(O)c3c2=O)C(O)C(O)C1O (centres unmarked) [Q3G, quercetin-3-glucuronide]		
